The source of these data is article PMC10421376, “Simultaneous Determination of Five Iridoids of Picrorhiza scrophulariiflora in Rat Plasma Using UHPLC-ESI-MS/MS” (Molecules, 2023).

Molecules are shown by their SMILES. Where two headings read alike, the source gives them in different places.

Series [1] is described as follows: Pharmacokinetics of five iridoids in rat plasma after oral administration of PS extract (UHPLC-ESI-MS/MS). It is filed as in vivo, SD (Sprague Dawley) rats. As for the experimental part: Six adult male SD (Sprague Dawley) rats (220–250 g) were purchased from the Animal Experiment Center of Heilongjiang University of Chinese Medicine. The Animal Ethics Committee of Harbin Medical University approved the experimental protocol, which conformed to the principles for the Care and Use of Laboratory Animals. The experimental animals were fed under the following conditions: room temperature (20–25 °C), relative humidity (40–60%), 12 h of alternating day and night lighting, 12 h of fasting before the experiment, and free access to water. We calculated the dosage of SD rats using the standardized formula for body surface area (BSA). According to the Chinese Pharmacopoeia, the dosage of PS raw medicine for human use is 10 g. The dosage for rats is 0.9 g/kg.
The dried PS powder weighed 200 g and was extracted with eight times the amount of 75% ethanol at reflux three times for 2 h each time. The extracts were combined, filtered, distilled under reduced pressure until the alcoholic taste disappeared, and lyophilized with water. In our previous laboratory experiments, we used HPLC to determine the content of five analytes, namely Picroside-I (15.68 mg/g), Picroside-II (103.64 mg/g), Picroside-III (64.08 mg/g), minecoside (2.02 mg/g), and sweroside (12.28 mg/g). After freeze-drying, we dissolved the solid in a 5% sodium carboxymethyl cellulose solution and prepared a medicinal extract solution with a concentration of 0.3 g/mL.
A dose of 1 g/kg of body weight was administered to rats according to the pharmacopoeia and previous content results for the five analytes. Rat tail vein blood samples were collected in heparinized tubes before and 0.167, 0.333, 0.5, 0.75, 1, 2, 4, 6, 8, and 12 h after administration and centrifuged at 3500 rpm for 10 min. We obtained 100 µL of the upper layer of plasma and stored it at −20 °C for measurement.
The plasma samples were treated according to the method described in Section 3.3. The plasma samples were determined according to the chromatographic conditions described in Section 3.4 and chromatograms were recorded. The measured peak area ratios of the substances being measured and the IS were substituted into the accompanying standard curves on the same day. We also calculated the blood concentrations of Picroside-I (15.68 mg/g), Picroside-II (103.64 mg/g), Picroside-III (64.08 mg/g), minecoside (2.02 mg/g), and sweroside (12.28 mg/g), respectively. We determined the QC samples at the same time, allowing a maximum of two different concentrations of QC samples to exceed the theoretical value of ±15% of the RE% value.
The peak areas of Picroside-I, Picroside-II, Picroside-III, minecoside, sweroside, and IS in each sample were recorded. We calculated and substituted their ratios into the standard curve equation to obtain corresponding concentrations for the five substances being measured in the plasma of SD rats. The blood concentration data of each rat were processed separately to calculate the relevant pharmacokinetic parameters, and the mean and standard deviation of the parameters were further calculated. We calculated and plotted pharmacokinetic parameters including concentration–time curves (AUC0–t, AUC0–∞), average residence time (MRT), maximum plasma concentration (Cmax), time to reach the maximum concentration (Tmax), and half-time (t1/2) using pharmacokinetic software (DAS 2.0) with a non-atrial chamber model for blood concentration–time curves. All parameters were expressed as mean ± SD.

Series [2] in a line: Stability of the analytes in rat plasma QC samples under storage and processing conditions. The note with it: n = 6; for Short-Term Stability RE: room temperature 4 h; for Freeze-Thaw RE: three freeze-thaw cycles −20 °C/room temperature; for Long-Term Stability RE: −20 °C two weeks. It is filed as in vitro ADME. The method, then: Stability refers to the chemical stability of the sample being tested in a given medium under certain external conditions. We obtained 100 µL of rat blank plasma and prepared low, medium, and high concentrations of the QC sample standard solutions, Picroside-I, Picroside-II, Picroside-III, minecoside, and sweroside, according to the method described in Section 3.3. As simulated biological samples, the following conditions were investigated: (1) Short-term stability (QC samples were left at room temperature for 4 h, which exceeded the sample preparation time); (2) long-term stability (QC samples were left at −20 °C for two weeks); (3) freeze-thaw stability (three freeze-thaw cycles at −20 °C/room temperature) and post-preparation stability (QC samples were left in a 4 °C auto sampling chamber for 24 h).

For another series, the system named is hyaluronidase. The note with it: cited from earlier work.
The next series concerns CXCR4. On the set-up: method as in PMID 32016931. The conditions noted are these: breast cancer cells; cited from earlier work.
A further series relates to H9c2. The conditions noted are these: cardiac cell line H9c2; cited from earlier work.
Details of series [3]: method as in PMID 27498779. The note with it: mice, bile stasis-induced liver injury; cited from earlier work.
Setting [4] is: male, Sprague-Dawley, rat, in vivo, po, 1 g/kg.
Where [5] appears, read: rat plasma, oral PS extract 1 g/kg, n = 6, mean ± SD.

In series [1] (setting [4]), `O=C(/C=C/c1ccccc1)OC[C@H]1O[C@@H](O[C@@H]2OC=C[C@H]3[C@H](O)[C@@H]4O[C@]4(CO)[C@@H]23)[C@H](O)[C@@H](O)[C@@H]1O` [Picroside-I] gave an AUC(0-inf) of 382 ± 29.4 ng·h/mL, an AUC(0-t) of 361 ± 25.6 ng·h/mL, a Cl of 607.2 ± 290.6 mL/min/kg and a Cmax of 114 ± 16.1 ng/mL. For the same compound, in series [1] (setting [4]), the MRT last worked out at 3.6 ± 0.2 h, the Tmax turned out to be 1.1 ± 0.2 h, the Vd amounted to 186.7 ± 17.436 L/kg and the half-life was 2.4 ± 0.3 h. Besides, in series [2] (high QC), the “Short-Term Stability RE” value amounted to 6.58%, the “Freeze-Thaw RE” value is listed as −1.94% and the “Long-Term Stability RE” value is 3.59%. In series [2] (low QC), the “Short-Term Stability RE” value was determined as 8.93%, the “Freeze-Thaw RE” value is reported as 6.43% and the “Long-Term Stability RE” value came to 5.60%. Besides, in series [2] (medium QC), the “Short-Term Stability RE” value worked out at 3.83%, the “Freeze-Thaw RE” value is listed as −2.74% and the “Long-Term Stability RE” value was −5.69%.
As to `COc1ccc(/C=C/C(=O)O[C@H]2[C@@H]3C=CO[C@@H](O[C@@H]4O[C@H](CO)[C@@H](O)[C@H](O)[C@H]4O)[C@@H]3[C@@]3(CO)O[C@@H]23)cc1O` [Minecoside, minecoside], in series [1] (setting [4]), the AUC(0-inf) was determined as 93.5 ± 22.6 ng·h/mL, the AUC(0-t) worked out at 78.9 ± 10.2 ng·h/mL, the Cl is 119.1 ± 39.7 mL/min/kg and the maximum concentration (Cmax) is 21.1 ± 7.8 ng/mL. In series [1] (setting [4]), the MRT last amounted to 4.1 ± 0.7 h, the Tmax stood at 1 ± 0.2 h, the Vd is reported as 19.26 ± 4.77 L/kg and the half-life was 5 ± 2.3 h. The Hyaluronidase inhibitory activity entry in the series on hyaluronidase is “hyaluronidase inhibitory activity”. In the series on CXCR4, the “Effect on CXCR4 expression” value is “inhibits the expression of CXCR4”.
The compound `COc1cc(C(=O)O[C@H]2[C@@H]3C=CO[C@@H](O[C@@H]4O[C@H](CO)[C@@H](O)[C@H](O)[C@H]4O)[C@@H]3[C@@]3(CO)O[C@@H]23)ccc1O` [Picroside-II] came in with an AUC(0-t) in series [1] (male, Sprague-Dawley, rat, in vivo, po) of 604 ± 239 ng·h/mL. In series [1] (setting [4]), this compound returned an AUC(0-inf) of 611 ± 246 ng·h/mL, an AUC(0-t) of 604 ± 239 ng·h/mL, a Cl of 2873.3 ± 999.3 mL/min/kg and a Cmax of 336 ± 92.3 ng/mL. For the same compound, in series [1] (setting [4]), the MRT last worked out at 2.3 ± 0.5 h, the Tmax is 1.1 ± 0.1 h, the Vd is given as 796 ± 503.5 L/kg and the half-life is 2.3 ± 1.5 h. Moreover, in series [2] (high QC), the “Short-Term Stability RE” value came to 4.47%, the “Freeze-Thaw RE” value is −1.47% and the “Long-Term Stability RE” value is given as −2.19%. Also, in series [2] (low QC), the “Short-Term Stability RE” value is −4.99%, the “Freeze-Thaw RE” value is given as 7.08% and the “Long-Term Stability RE” value is reported as 8.69%. In addition, in series [2] (medium QC), the “Short-Term Stability RE” value was determined as 8.53%, the “Freeze-Thaw RE” value was −7.21% and the “Long-Term Stability RE” value is 1.37%.
Turning to `C=C[C@H]1[C@H](O[C@@H]2O[C@H](CO)[C@@H](O)[C@H](O)[C@H]2O)OC=C2C(=O)OCC[C@H]21` [Sweroside, sweroside], the AUC(0-t) in series [1] (male, Sprague-Dawley, in vivo, rat plasma, oral PS extract 1 g/kg, n = 6, mean ± SD, read-out: AUC0–t) was 261 ± 65.3 ng·h/mL. In addition, the AUC(0-inf) in series [1] (male, Sprague-Dawley, in vivo, rat plasma, oral PS extract 1 g/kg, n = 6, mean ± SD, read-out: AUC0–∞) was determined as 268 ± 70.8 ng·h/mL. In series [1] (male, Sprague-Dawley, in vivo, rat plasma, oral PS extract 1 g/kg, n = 6, mean ± SD, read-out: Cmax), the Cmax amounted to 63.7 ± 17.6 ng/mL. In addition, the MRT last in series [1] (male, Sprague-Dawley, in vivo, rat plasma, oral PS extract 1 g/kg, n = 6, mean ± SD, read-out: MRT0–t) amounted to 3.9 ± 0.3 h. The Tmax in series [1] (male, Sprague-Dawley, in vivo, rat plasma, oral PS extract 1 g/kg, n = 6, mean ± SD, read-out: Tmax) came to 2.1 ± 0.1 h. Moreover, the half-life in series [1] (male, Sprague-Dawley, in vivo, rat plasma, oral PS extract 1 g/kg, n = 6, mean ± SD, read-out: t1/2 (converted)) is 1.2 ± 0.3 h. In series [1] (setting [5]), the Cl is 2015 ± 615.8 mL/min/kg and the Vd amounted to 785.1 ± 130.6 L/kg. In addition, the “Effect on aconitine toxicity to myoblasts” value with H9c2 is “reduce aconitine’s toxicity”. In series [3], the “Effect on pro-inflammatory responses and bile acid levels” value was “improves pro-inflammatory responses and bile acid levels”.
